The experiment concerns the target T1, SIRT1 (Homo sapiens, UniProt Q96EB6).
T1 sequence (Q96EB6 1-747): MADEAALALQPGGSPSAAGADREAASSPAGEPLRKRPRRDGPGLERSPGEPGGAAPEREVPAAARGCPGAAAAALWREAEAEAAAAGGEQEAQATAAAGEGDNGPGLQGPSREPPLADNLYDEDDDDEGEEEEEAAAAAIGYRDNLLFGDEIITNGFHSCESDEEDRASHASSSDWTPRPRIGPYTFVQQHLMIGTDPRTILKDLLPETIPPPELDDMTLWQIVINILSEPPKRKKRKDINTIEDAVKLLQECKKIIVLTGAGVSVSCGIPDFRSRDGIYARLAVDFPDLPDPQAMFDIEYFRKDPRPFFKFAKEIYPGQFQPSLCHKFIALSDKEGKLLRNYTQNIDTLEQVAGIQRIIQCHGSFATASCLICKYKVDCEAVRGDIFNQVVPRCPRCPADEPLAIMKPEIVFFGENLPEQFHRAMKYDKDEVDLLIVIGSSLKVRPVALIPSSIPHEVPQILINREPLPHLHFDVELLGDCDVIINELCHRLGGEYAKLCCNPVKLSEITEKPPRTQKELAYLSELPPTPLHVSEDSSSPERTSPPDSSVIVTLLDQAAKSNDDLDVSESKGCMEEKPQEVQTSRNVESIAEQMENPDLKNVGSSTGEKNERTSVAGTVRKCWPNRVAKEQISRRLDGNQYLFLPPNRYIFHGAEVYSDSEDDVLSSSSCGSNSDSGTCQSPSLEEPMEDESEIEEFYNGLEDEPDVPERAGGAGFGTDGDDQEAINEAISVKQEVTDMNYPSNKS
The experiment is described as follows: Trp mass spectrometry assay (SIRT1 activation). It is filed as biochemical. Particulars: Trp peptide substrate; for Tryp AVG EC1.5 (μM): concentration of test compound that results in 150% activation of SIRT1; for Emax: percent maximum fold activation of SIRT1, read-out: Tryp % Fold Act. Summed up:
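N-His-tagged SIRT1 (10 nM), expressed in E. coli, was incubated with 0.5 μM Ac-RHKK(Ac)W-NH2 peptide and 120 μM NAD+ for 25 min at 25 °C in HEPES pH 7.5 with […]. The reaction was stopped with formic acid and O-acetyl-ADP-ribose or deacetylated peptide was quantified by mass spectrometry. Results are given as EC1.5 and percent maximal activation relative to DMSO control.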

Consider `O=C(Nc1cccnc1)N1c2nc(-c3cncc(F)c3)ccc2N2CCC1CC2` [Example 572], for which the “Tryp AVG EC1.5 (μM)” value is listed as “B (EC1.5 1-25 μM)” and the Emax was ≥ 150%.

Consider `O=C(Nc1ccncn1)N1c2nc(-c3cncc(F)c3)ccc2N2CCC1CC2` [Example 573], for which the “Tryp AVG EC1.5 (μM)” value is “C (EC1.5>25 μM)” and the Emax was < 150%. Turning to `O=C(Nc1cccc(-c2cnco2)c1)N1c2nc(-c3cncc(F)c3)ccc2N2CCC1CC2` [Example 574], the “Tryp AVG EC1.5 (μM)” value is “A (EC1.5<1 μM)” and the Emax is ≥ 150%. Take `O=C(Nc1cccc(-c2cnco2)c1)N1c2nc(-c3cncc(Cl)c3)ccc2N2CCC1CC2` [Example 575]: the “Tryp AVG EC1.5 (μM)” value is recorded as “A (EC1.5<1 μM)” and the Emax was ≥ 150%. Take `O=C(Nc1ccncn1)N1c2nc(-c3cncc(Cl)c3)ccc2N2CCC1CC2` [Example 576]: the “Tryp AVG EC1.5 (μM)” value is reported as “B (EC1.5 1-25 μM)” and the Emax is ≥ 150%.

Take `Cc1nc(NC(=O)N2c3nc(-c4cncc(F)c4)ccc3N3CCC2CC3)sc1C` [Example 577]: the “Tryp AVG EC1.5 (μM)” value is recorded as “B (EC1.5 1-25 μM)” and the Emax was ≥ 150%.

For the compound `COc1cc(NC(=O)N2c3nc(-c4cncc(F)c4)ccc3N3CCC2CC3)nc(OC)n1` [Example 578], the “Tryp AVG EC1.5 (μM)” value is on record as “B (EC1.5 1-25 μM)” and the Emax was ≥ 150%. On to `COc1cc(NC(=O)N2c3nc(-c4cncc(F)c4)ccc3N3CCC2CC3)ncn1` [Example 579], for which the “Tryp AVG EC1.5 (μM)” value is on record as “B (EC1.5 1-25 μM)” and the Emax is ≥ 150%. Consider `O=C(Nc1ccc(-n2cncn2)cc1)N1c2nc(-c3cccc(C(F)(F)F)c3)ccc2N2CC[C@H]1C2` [Example 580], for which the “Tryp AVG EC1.5 (μM)” value is reported as “A (EC1.5<1 μM)” and the Emax is ≥ 150%. The matching figures for `O=C(Nc1cccc(-n2cncn2)c1)N1c2nc(-c3cccc(C(F)(F)F)c3)ccc2N2CC[C@H]1C2` [Example 581]: “A (EC1.5<1 μM)” and ≥ 150%. On to `Cc1ccc(-c2ccc(NC(=O)N3c4nc(-c5cccc(C(F)(F)F)c5)ccc4N4CC[C@H]3C4)cc2)o1` [Example 582], for which the “Tryp AVG EC1.5 (μM)” value was “B (EC1.5 1-25 μM)” and the Emax was ≥ 150%. Consider `Cc1nc(-c2cccc(NC(=O)N3c4nc(-c5cccc(C(F)(F)F)c5)ccc4N4CC[C@H]3C4)c2)cs1` [Example 583], for which the “Tryp AVG EC1.5 (μM)” value is listed as “A (EC1.5<1 μM)” and the Emax was ≥ 150%. Consider `O=C(Nc1cccnc1)N1c2nc(-c3cnn(C4CCCC4)c3)ccc2N2CC[C@H]1C2` [Example 587], for which the “Tryp AVG EC1.5 (μM)” value is reported as “B (EC1.5 1-25 μM)” and the Emax is ≥ 150%. For `O=C(Nc1cccc(-c2cnco2)n1)N1c2nc(-c3cccc(C(F)(F)F)c3)ccc2N2CC[C@H]1C2` [Example 588], the “Tryp AVG EC1.5 (μM)” value is on record as “A (EC1.5<1 μM)” and the Emax is ≥ 150%. Take `O=C(Nc1cc(-c2cnco2)ccn1)N1c2nc(-c3cccc(C(F)(F)F)c3)ccc2N2CC[C@H]1C2` [Example 589]: the “Tryp AVG EC1.5 (μM)” value is “A (EC1.5<1 μM)” and the Emax was ≥ 150%. As for `O=C(Nc1cccc(-c2cnco2)n1)N1c2nc(-c3cccc(C(F)(F)F)c3)ccc2N2CCC[C@H]1C2` [Example 590], the “Tryp AVG EC1.5 (μM)” value is listed as “A (EC1.5<1 μM)” and the Emax is ≥ 150%. The matching figures for `O=C(Nc1cc(-c2cnco2)ccn1)N1c2nc(-c3cccc(C(F)(F)F)c3)ccc2N2CCC[C@H]1C2` [Example 591]: “A (EC1.5<1 μM)” and ≥ 150%.

Take `CC(C)(C)OC(=O)N1CCC(c2cccc(NC(=O)N3c4nc(-c5cccc(C(F)(F)F)c5)ccc4N4CC[C@H]3C4)c2)C1` (stereo partly shown) [Example 592]: the “Tryp AVG EC1.5 (μM)” value is on record as “A (EC1.5<1 μM)” and the Emax was ≥ 150%. For `O=C(Nc1cccc(C2CCNC2)c1)N1c2nc(-c3cccc(C(F)(F)F)c3)ccc2N2CC[C@H]1C2` (stereo partly shown) [Example 593], in that order: “A (EC1.5<1 μM)” and ≥ 150%. For the compound `NC(=O)CN1CCC(c2cccc(NC(=O)N3c4nc(-c5cccc(C(F)(F)F)c5)ccc4N4CC[C@H]3C4)c2)C1` (stereo partly shown) [Example 594], the “Tryp AVG EC1.5 (μM)” value is “A (EC1.5<1 μM)” and the Emax was ≥ 150%. For `O=C(Nc1cc(-c2cnco2)ccn1)N1c2nc(-c3cccc(C(F)(F)F)c3)ccc2N2CCC1CC2` [Example 595], the “Tryp AVG EC1.5 (μM)” value is on record as “A (EC1.5<1 μM)” and the Emax was ≥ 150%.

With `O=C(Nc1cccc(-c2cnco2)n1)N1c2nc(-c3cccc(C(F)(F)F)c3)ccc2N2CCC1CC2` [Example 596], the “Tryp AVG EC1.5 (μM)” value was “A (EC1.5<1 μM)” and the Emax was ≥ 150%. Turning to `O=C(NCc1ccccc1)N1c2nc(-c3cccc(C(F)(F)F)c3)ccc2N2CC[C@H]1C2` [Example 597], the “Tryp AVG EC1.5 (μM)” value is “B (EC1.5 1-25 μM)” and the Emax was ≥ 150%. In the case of `O=C(NCCc1ccccc1)N1c2nc(-c3cccc(C(F)(F)F)c3)ccc2N2CC[C@H]1C2` [Example 598], the “Tryp AVG EC1.5 (μM)” value is reported as “B (EC1.5 1-25 μM)” and the Emax was ≥ 150%. Regarding `O=C(NCCCc1ccccc1)N1c2nc(-c3cccc(C(F)(F)F)c3)ccc2N2CC[C@H]1C2` [Example 599], the “Tryp AVG EC1.5 (μM)” value is listed as “B (EC1.5 1-25 μM)” and the Emax was ≥ 150%. As for `O=C(NCCCCc1ccccc1)N1c2nc(-c3cccc(C(F)(F)F)c3)ccc2N2CC[C@H]1C2` [Example 600], the “Tryp AVG EC1.5 (μM)” value was “B (EC1.5 1-25 μM)” and the Emax is ≥ 150%. For the compound `O=C(Nc1ccccn1)N1c2nc(-c3cccc(C(F)(F)F)c3)ccc2N2C[C@@H](O)[C@H]1C2` [Example 601], the “Tryp AVG EC1.5 (μM)” value is reported as “A (EC1.5<1 μM)” and the Emax is ≥ 150%. Regarding `CC(=O)O[C@@H]1CN2C[C@H]1N(C(=O)Nc1ccccn1)c1nc(-c3cccc(C(F)(F)F)c3)ccc12` [Example 602], the “Tryp AVG EC1.5 (μM)” value is given as “B (EC1.5 1-25 μM)” and the Emax was ≥ 150%. On to `O=C(O[C@@H]1CN2C[C@H]1N(C(=O)Nc1ccccn1)c1nc(-c3cccc(C(F)(F)F)c3)ccc12)c1ccccc1` [Example 603], for which the “Tryp AVG EC1.5 (μM)” value is given as “C (EC1.5>25 μM)” and the Emax was < 150%. As for `CC(C)(C)OC(=O)NCCn1cc(-c2cccc(NC(=O)N3c4nc(-c5cccc(C(F)(F)F)c5)ccc4N4CCC[C@H]3C4)c2)nn1` [Example 604], the “Tryp AVG EC1.5 (μM)” value is listed as “A (EC1.5<1 μM)” and the Emax is ≥ 150%.

In the case of `CC(C)(C)OC(=O)NCc1cn(-c2cccc(NC(=O)N3c4nc(-c5cccc(C(F)(F)F)c5)ccc4N4CC[C@H]3C4)c2)nn1` [Example 605], the “Tryp AVG EC1.5 (μM)” value was “A (EC1.5<1 μM)” and the Emax is ≥ 150%.

`NCc1cn(-c2cccc(NC(=O)N3c4nc(-c5cccc(C(F)(F)F)c5)ccc4N4CC[C@H]3C4)c2)nn1` [Example 606]: the “Tryp AVG EC1.5 (μM)” value is given as “A (EC1.5<1 μM)” and the Emax was ≥ 150%. For the compound `O=C(CCCC[C@@H]1SC[C@@H]2NC(=O)N[C@@H]21)NCCCCCC(=O)NCc1cn(-c2cccc(NC(=O)N3c4nc(-c5cccc(C(F)(F)F)c5)ccc4N4CC[C@H]3C4)c2)nn1` [Example 607], the “Tryp AVG EC1.5 (μM)” value was “A (EC1.5<1 μM)”. As for `O=C1OC2(c3ccc(O)cc3Oc3cc(O)ccc32)c2ccc(NC(=S)NCc3cn(-c4cccc(NC(=O)N5c6nc(-c7cccc(C(F)(F)F)c7)ccc6N6CC[C@H]5C6)c4)nn3)cc21` [Example 608], the “Tryp AVG EC1.5 (μM)” value was “C (EC1.5>25 μM)” and the Emax was < 150%. With `CC(C)(C)OC(=O)N1CCc2ccc(NC(=O)N3c4nc(-c5cccc(C(F)(F)F)c5)ccc4N4CC[C@H]3C4)cc2C1` [Example 609], the “Tryp AVG EC1.5 (μM)” value is recorded as “B (EC1.5 1-25 μM)” and the Emax was ≥ 150%.

On to `CC(C)(C)OC(=O)N1CCCc2ccc(NC(=O)N3c4nc(-c5cccc(C(F)(F)F)c5)ccc4N4CC[C@H]3C4)cc21` [Example 610], for which the “Tryp AVG EC1.5 (μM)” value was “B (EC1.5 1-25 μM)” and the Emax was ≥ 150%.

On to `CC(C)(C)OC(=O)N1CCc2cc(NC(=O)N3c4nc(-c5cccc(C(F)(F)F)c5)ccc4N4CC[C@H]3C4)ccc2C1` [Example 611], for which the “Tryp AVG EC1.5 (μM)” value was “A (EC1.5<1 μM)” and the Emax is ≥ 150%. Consider `O=C(NCCCN1CCOCC1)N1c2nc(-c3cccc(C(F)(F)F)c3)ccc2N2CC[C@H]1C2` [Example 612], for which the “Tryp AVG EC1.5 (μM)” value is listed as “B (EC1.5 1-25 μM)” and the Emax was ≥ 150%. Take `O=C(NCCc1ccncc1)N1c2nc(-c3cccc(C(F)(F)F)c3)ccc2N2CC[C@H]1C2` [Example 613]: the “Tryp AVG EC1.5 (μM)” value is given as “B (EC1.5 1-25 μM)” and the Emax was ≥ 150%. For `O=C(NCCc1ccccn1)N1c2nc(-c3cccc(C(F)(F)F)c3)ccc2N2CC[C@H]1C2` [Example 614], the “Tryp AVG EC1.5 (μM)” value is “B (EC1.5 1-25 μM)” and the Emax was ≥ 150%.

For the origin of these results see patent US9765075B2, “Substituted bridged urea analogs as sirtuin modulators” (GLAXOSMITHKLINE LLC, priority 2013, dated 2017).
